Values after ≈ are worked out from the molar mass of the structure shown.
Legend:
5-HT1A receptor [1] = molecular target: T1, 5-HT1A receptor (Homo sapiens, UniProt P08908); details: in vitro; cited from earlier work
T1 sequence (P08908 1-422): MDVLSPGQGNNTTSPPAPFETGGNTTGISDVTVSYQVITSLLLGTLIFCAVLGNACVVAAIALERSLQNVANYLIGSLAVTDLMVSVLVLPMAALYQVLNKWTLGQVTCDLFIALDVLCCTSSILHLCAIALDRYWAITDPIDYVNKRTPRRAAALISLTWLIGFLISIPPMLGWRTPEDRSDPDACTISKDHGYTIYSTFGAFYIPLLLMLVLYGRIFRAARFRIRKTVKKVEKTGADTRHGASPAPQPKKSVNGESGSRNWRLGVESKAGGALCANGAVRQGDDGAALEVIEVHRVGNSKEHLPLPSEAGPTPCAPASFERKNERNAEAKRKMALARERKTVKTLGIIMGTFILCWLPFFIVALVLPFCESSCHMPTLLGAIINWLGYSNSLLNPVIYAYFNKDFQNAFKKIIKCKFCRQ

[2] = test system: 5-HT1A agonist discriminative stimulus cue; details: 0.01-1 mg/kg im; cited from earlier work
5-HT1A receptor [3] = details: chronic administration; cited from earlier work
[4] = aged rhesus monkeys, optimal dose 1 mg/kg po; cited from earlier work
[5] = marmosets, 2 mg/kg im; cited from earlier work
Solubility in water = assay type: physicochemical; details: 25° C.
[6] = test system: glutamate and acetylcholine release; details: dentate gyrus of the hippocampus; cited from earlier work
[7] = test system: hippocampal extracellular 5-HT; details: cited from earlier work

For `C[C@H](CN(C(=O)c1ccc(C#N)cc1)c1ccccn1)N1CCN(c2cccc3c2OCCO3)CC1` [lecozotan, 4-cyano-N-{(2R)-2-[4-(2,3-dihydro-benzo[1,4]dioxin-5-yl)-piperazin-1-yl]-propyl}-N-pyridin-2-yl-benzamide], the “5-HT1A receptor binding and intrinsic activity” value (5-HT1A receptor [1]) is given as “potent and selective 5-HT1A receptor antagonist”, the “blockade of the 5-HT1A agonist discriminative stimulus cue” value [2] is given as “dose-related blockade” and the “substitution for 8-OH-DPAT” value [2] is given as “did not substitute for 8-OH-DPAT”. The “5-HT1A receptor tolerance or desensitization” value (5-HT1A receptor [3]) was “did not induce 5-HT1A receptor tolerance or desensitization”, the task performance efficiency [4] was “significant improvement in task performance efficiency” and the “learning deficits induced by specific cholinergic lesions of the hippocampus” value [5] was “reversed”. For the same molecule, the “learning deficits induced by the glutamatergic antagonist MK-801” value [5] was “reversed”, the solubility (Solubility in water) was ~51 mg/mL (≈ 105 mM) and the “potassium chloride-stimulated release of glutamate and acetylcholine” value [6] was “significantly potentiated”. The “effect alone on hippocampal extracellular 5-HT” value ([7]; doses 10-fold higher than 0.3 mg/kg sc) was “had no effects alone” and the “effect on decrease in hippocampal extracellular 5-HT induced by 8 OH-DPAT (0.3 mg/kg sc)” value ([7]; lecozotan 0.3 mg/kg sc) was “antagonized the decrease in hippocampal extracellular 5-HT”.
